Data taken from PubChem BioAssay AID330 (DTP/NCI, 2004).
Where “and” joins values, the source holds several entries; their conditions need not be identical. Equal entries are not always repeated. Inconclusive results and toxic doses are left out. Rule for the calls: active = survival T/C of 150% or more; inactive = T/C below 125% in these data.

Test system: P388 leukemia ip, CD2F1 mice, survival T/C
Assay: NCI In Vivo Anticancer Drug Screen. Data for tumor model P388 Leukemia (intraperitoneal) in CD2F1 (CDF1) mice
Settings: endpoint: median survival time, higher = longer survival
Outline: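 Mice carrying the transplanted tumor received test compound or vehicle. Survival was recorded in each group, and the value is the treated-group measurement divided by that of the vehicle-treated control group.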

[1] = dose: 12.5 mg/kg/injection, schedule: Q01DX009 (ip), vehicle: distilled water + Tween-80
[2] = dose: 25.0 mg/kg/injection, schedule: Q01DX009 (ip), vehicle: distilled water + Tween-80
[3] = dose: 50.0 mg/kg/injection, schedule: Q01DX009 (ip), vehicle: distilled water + Tween-80
[4] = dose: 50.0 mg/kg/injection, schedule: Q01DX005 (ip), vehicle: Klucel (hydroxypropylcellulose) (HPC)
[5] = dose: 100.0 mg/kg/injection, schedule: Q01DX005 (ip), vehicle: Klucel (hydroxypropylcellulose) (HPC)
[6] = dose: 200.0 mg/kg/injection, schedule: Q01DX005 (ip), vehicle: Klucel (hydroxypropylcellulose) (HPC)
[7] = dose: 50.0 mg/kg/injection, schedule: Q01DX005 (ip), vehicle: saline with Tween-80
[8] = dose: 100.0 mg/kg/injection, schedule: Q01DX005 (ip), vehicle: saline with Tween-80
[9] = dose: 200.0 mg/kg/injection, schedule: Q01DX005 (ip), vehicle: saline with Tween-80

Measured: T/C

c1cc[c]([Pb]([S]c2nc3ccccc3[nH]2)([c]2ccccc2)[c]2ccccc2)cc1
inactive: dose: 0.37 mg/kg/injection, schedule: Q01DX009 (ip), vehicle: Klucel (hydroxypropylcellulose) (HPC) 102 % of control | dose: 0.75 mg/kg/injection, schedule: Q01DX009 (ip), vehicle: Klucel (hydroxypropylcellulose) (HPC) 121 % of control | dose: 1.5 mg/kg/injection, schedule: Q01DX009 (ip), vehicle: Klucel (hydroxypropylcellulose) (HPC) 102 % of control | dose: 3.0 mg/kg/injection, schedule: Q01DX009 (ip), vehicle: Klucel (hydroxypropylcellulose) (HPC) 100 % of control

O=c1ccc(=O)n(CCc2ccccn2)[nH]1
inactive: dose: 50.0 mg/kg/injection, schedule: Q01DX009 (ip), vehicle: Klucel (hydroxypropylcellulose) (HPC) 112 % of control | dose: 100.0 mg/kg/injection, schedule: Q01DX009 (ip), vehicle: Klucel (hydroxypropylcellulose) (HPC) 109 % of control | dose: 200.0 mg/kg/injection, schedule: Q01DX009 (ip), vehicle: Klucel (hydroxypropylcellulose) (HPC) 108 % of control | dose: 400.0 mg/kg/injection, schedule: Q01DX009 (ip), vehicle: Klucel (hydroxypropylcellulose) (HPC) 106 % of control

CCCC(C)/C=C(\C)C(O)C(C)/C=C/CCC(O)C(C)C(O)C(C)C(O)C(C)C1OC(C(C)C(=O)OC)CCC1C (stereo unspecified)
inactive: dose: 12.5 mg/kg/injection, schedule: Q01DX005 (ip), vehicle: dimethyl formamide 111 % of control | dose: 25.0 mg/kg/injection, schedule: Q01DX005 (ip), vehicle: dimethyl formamide 108 % of control | dose: 50.0 mg/kg/injection, schedule: Q01DX005 (ip), vehicle: dimethyl formamide 102 % of control

CCC[As](CCC)SC1CCC2(C)C(=CCC3C4CCC(=O)C4(C)CCC32)C1 (stereo unspecified)
inactive: [1] 98 % of control | [2] 98 % of control | [3] 95 % of control | dose: 100.0 mg/kg/injection, schedule: Q01DX009 (ip), vehicle: distilled water + Tween-80 92 % of control | dose: 200.0 mg/kg/injection, schedule: Q01DX009 (ip), vehicle: distilled water + Tween-80 98 % of control

Cc1cc(N2C(=O)CSC2=S)ccc1Cl
inactive: dose: 50.0 mg/kg/injection, schedule: Q01DX009 (ip), vehicle: suspension in saline 105 % of control | dose: 100.0 mg/kg/injection, schedule: Q01DX009 (ip), vehicle: suspension in saline 99 % of control | dose: 200.0 mg/kg/injection, schedule: Q01DX009 (ip), vehicle: suspension in saline 106 % of control

c1ccc([P+](c2ccccc2)(c2ccccc2)c2ccccc2)cc1
inactive: dose: 0.63 mg/kg/injection, schedule: Q04DX003 (ip), vehicle: saline 100 % of control | dose: 1.25 mg/kg/injection, schedule: Q04DX003 (ip), vehicle: saline 118 % of control | dose: 2.5 mg/kg/injection, schedule: Q04DX003 (ip), vehicle: saline 122 % of control | dose: 3.3 mg/kg/injection, schedule: Q04DX003 (ip), vehicle: saline 122 % of control

CCOC(=O)C(C)(C)CN1COCC1(C)C
inactive: dose: 50.0 mg/kg/injection, schedule: Q01DX001 (ip), vehicle: saline with Tween-80 104 % of control | dose: 100.0 mg/kg/injection, schedule: Q01DX001 (ip), vehicle: saline with Tween-80 104 % of control | dose: 200.0 mg/kg/injection, schedule: Q01DX001 (ip), vehicle: saline with Tween-80 118 % of control

O=C1OCCN1/N=C/C=N/N1CCOC1=O
inactive: dose: 1.56 mg/kg/injection, schedule: Q01DX009 (ip), vehicle: saline with Tween-80 95 % of control | dose: 3.12 mg/kg/injection, schedule: Q01DX009 (ip), vehicle: saline with Tween-80 95 % of control | dose: 6.25 mg/kg/injection, schedule: Q01DX009 (ip), vehicle: saline with Tween-80 105 % of control

O=c1ccc(=O)[nH][nH]1
inactive: dose: 25.0 mg/kg/injection, schedule: Q01DX009 (ip), vehicle: saline 102 % of control | dose: 50.0 mg/kg/injection, schedule: Q01DX009 (ip), vehicle: saline 105 % of control and 88 % of control | dose: 100.0 mg/kg/injection, schedule: Q01DX009 (ip), vehicle: saline 99 % of control and 102 % of control | dose: 200.0 mg/kg/injection, schedule: Q01DX009 (ip), vehicle: saline 99 % of control and 100 % of control | dose: 400.0 mg/kg/injection, schedule: Q01DX009 (ip), vehicle: saline 99 % of control and 110 % of control

CCCCOc1ccc(C(C)c2cc3c(cc2OCC)OCO3)cc1 (stereo unspecified)
inactive: dose: 25.0 mg/kg/injection, schedule: Q01DX005 (ip), vehicle: Klucel (hydroxypropylcellulose) (HPC) 103 % of control | [4] 103 % of control | [5] 100 % of control | [6] 104 % of control

CCN1C(=O)C(=O)c2ccccc21
inactive: dose: 18.75 mg/kg/injection, schedule: Q01DX009 (ip), vehicle: saline with Tween-80 96 % of control | dose: 18.75 mg/kg/injection, schedule: Q01DX009 (ip), vehicle: saline 107 % of control | dose: 37.5 mg/kg/injection, schedule: Q01DX009 (ip), vehicle: saline with Tween-80 96 % of control | dose: 37.5 mg/kg/injection, schedule: Q01DX009 (ip), vehicle: saline 102 % of control and 110 % of control | dose: 75.0 mg/kg/injection, schedule: Q01DX009 (ip), vehicle: saline with Tween-80 100 % of control | dose: 75.0 mg/kg/injection, schedule: Q01DX009 (ip), vehicle: saline 104 % of control and 105 % of control

O=C(Nc1ccc([N+](=O)[O-])cc1)Nc1nccs1
inactive: [1] 108 % of control and 112 % of control and 115 % of control | [2] 120 % of control | [3] 119 % of control

O=C1NC(=O)C2C1C(C(=O)O)C1C3C(=O)NC(=O)C3C1C2C(=O)O (stereo unspecified)
inactive: dose: 25.0 mg/kg/injection, schedule: Q01DX009 (ip), vehicle: saline with Tween-80 91 % of control | dose: 50.0 mg/kg/injection, schedule: Q01DX009 (ip), vehicle: saline with Tween-80 94 % of control | dose: 100.0 mg/kg/injection, schedule: Q01DX009 (ip), vehicle: saline with Tween-80 97 % of control | dose: 200.0 mg/kg/injection, schedule: Q01DX009 (ip), vehicle: saline with Tween-80 91 % of control and 92 % of control | dose: 400.0 mg/kg/injection, schedule: Q01DX009 (ip), vehicle: saline with Tween-80 96 % of control

CSc1nc(SC)c2cnn(Cc3ccccc3)c2n1
inactive: [7] 96 % of control | [8] 95 % of control | [9] 93 % of control

COc1ccc(CCNC(C)Cc2ccc(OC)c(OC)c2)cc1OC (stereo unspecified)
inactive: dose: 3.13 mg/kg/injection, schedule: Q01DX009 (ip), vehicle: water 94 % of control | dose: 6.25 mg/kg/injection, schedule: Q01DX009 (ip), vehicle: water 92 % of control | dose: 12.5 mg/kg/injection, schedule: Q01DX009 (ip), vehicle: water 96 % of control | dose: 25.0 mg/kg/injection, schedule: Q01DX009 (ip), vehicle: water 100 % of control | dose: 50.0 mg/kg/injection, schedule: Q01DX009 (ip), vehicle: water 99 % of control

O=S(=O)(O)C1CCC(O)C2[N-]CCCC21.O=S(=O)(O)C1CCC(O)C2[N-]CCCC21.[Ni+2] (stereo unspecified)
inactive: dose: 25.0 mg/kg/injection, schedule: Q01DX001 (ip), vehicle: saline 100 % of control | dose: 50.0 mg/kg/injection, schedule: Q01DX001 (ip), vehicle: saline 100 % of control | dose: 100.0 mg/kg/injection, schedule: Q01DX001 (ip), vehicle: saline 110 % of control

[CH2+][B-]1(C)n2ccc[n+]2[B-](C)(C)[n+]2cccn21
inactive: dose: 60.0 mg/kg/injection, schedule: Q01DX005 (ip), vehicle: saline with Tween-80 90 % of control | dose: 120.0 mg/kg/injection, schedule: Q01DX005 (ip), vehicle: saline with Tween-80 98 % of control | dose: 240.0 mg/kg/injection, schedule: Q01DX005 (ip), vehicle: saline with Tween-80 93 % of control

O=C1CC2(O)CSc3nc(=O)cc(n32)N1 (stereo unspecified)
inactive: dose: 50.0 mg/kg/injection, schedule: Q01DX005 (ip), vehicle: saline 107 % of control | dose: 100.0 mg/kg/injection, schedule: Q01DX005 (ip), vehicle: saline 106 % of control | dose: 200.0 mg/kg/injection, schedule: Q01DX005 (ip), vehicle: saline 94 % of control

COc1ccc(S(=O)(=O)N/N=C/c2cc(=O)[nH]c(=O)[nH]2)cc1
inactive: dose: 25.0 mg/kg/injection, schedule: Q01DX005 (ip), vehicle: saline with Tween-80 100 % of control | [7] 101 % of control | [8] 105 % of control | [9] 118 % of control

O=C(NCCCCCCNC(=O)c1ccccc1)c1ccccc1
inactive: [4] 100 % of control and 90 % of control | [5] 107 % of control and 86 % of control | [6] 89 % of control and 90 % of control
